Data as given in PMC8470973, “Multi-Target Actions of Acridones from Atalantia monophylla towards Alzheimer’s Pathogenesis and Their Pharmacokinetic Properties” (Pharmaceuticals, 2021).

Experiments:
Aβ1-42 = Aβ1-42 (Homo sapiens, UniProt P05067); experiment: Inhibition of self-mediated Aβ1-42 aggregation (thioflavin T assay)
Method: The Aβ1-42 self-aggregation process was studied using the thioflavin-T assay [62, 63]. […] All test compounds were dissolved by DMSO.

[1] = biological target: T1, AChE from Electrophorus electricus (type VI-S) (Electrophorus electricus, UniProt O42275); experiment: biochemical; conditions: Ellman's method, pH 7.4, acetylthiocholine 1 mM; mean ± SD; read-out: Anti-AChE IC50
T1 construct: purchased type VI-S
T1 sequence (O42275 24-633): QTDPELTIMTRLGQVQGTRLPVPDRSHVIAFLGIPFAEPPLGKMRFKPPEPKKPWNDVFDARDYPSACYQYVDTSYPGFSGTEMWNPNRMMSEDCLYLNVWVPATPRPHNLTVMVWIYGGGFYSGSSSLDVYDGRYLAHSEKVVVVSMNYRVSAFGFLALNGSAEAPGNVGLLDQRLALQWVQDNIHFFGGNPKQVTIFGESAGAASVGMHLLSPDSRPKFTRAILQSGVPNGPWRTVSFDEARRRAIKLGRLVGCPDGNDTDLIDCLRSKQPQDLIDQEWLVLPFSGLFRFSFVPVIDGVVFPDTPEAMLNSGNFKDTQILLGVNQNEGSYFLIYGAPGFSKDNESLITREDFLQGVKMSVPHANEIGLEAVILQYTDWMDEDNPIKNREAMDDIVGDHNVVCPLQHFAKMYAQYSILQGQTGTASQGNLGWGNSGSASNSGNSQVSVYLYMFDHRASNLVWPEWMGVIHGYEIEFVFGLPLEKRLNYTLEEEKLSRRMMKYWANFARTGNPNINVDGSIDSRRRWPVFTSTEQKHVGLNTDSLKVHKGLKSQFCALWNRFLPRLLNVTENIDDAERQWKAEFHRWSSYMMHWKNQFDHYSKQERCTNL
Method: It is well-known that the cholinergic system plays a vital role in the regulation of the learning, cognitive and memory processes. […] In the present study, all acridones were tested for their inhibition of AChE according to the method of Ellman and co-workers, using tacrine as a reference compound. […] Acridone consists of two benzene rings fused together with a keto group and a nitrogen atom at positions 9 and 10, respectively, resulting in a planar structure.
AChE activity was evaluated and modified from Ellman’s method. All test compounds were prepared as stock solution in ethanol. […] Experiments were performed in triplicates.

[2] = ABTS radical scavenging assay; conditions: read-out: ABTS Scavenging Activity IC50; mean ± SD, triplicates; 10 to 100 µM tested
Method: In the present study, the antioxidant activity of the 10 acridones was evaluated by ABTS radical scavenging assay and trolox was used as the reference compound.
The antioxidant activity was determined by the decolonization of the radical cation of 2,2′-azinobis-(3-ethylbenzothiazoline-6-sulfonic acid) (ABTS^•+) [60]. […] Prior to the assay, the ABTS^•+ solution was diluted to get an absorbance of 0.70 ± 0.02 at 700 nm with ethanol. Trolox was used as an antioxidant standard. All test and standard compounds were dissolved in ethanol. Fifty microliters of each test compound was added to 100 µL of diluted ABTS^•+ solution to obtain final concentrations from 10 to 100 µM. […] Experiments were performed in independent triplicates.

[3] = tested on: SH-SY5Y neuroblastoma cells; experiment: Cytotoxicity by MTT assay in SH-SY5Y cells; assay type: cell-based; conditions: 0.1–10 µM, 24 h incubation
Method: […]. […] […]. Thus, the acridones were investigated for neuroprotective effects against H2O2 and Aβ1-42 induced toxicity in human SH-SY5Y neuroblastoma cells at the non-toxic concentration of 10 µM.
(§1) Human neuroblastoma cell line SH-SY5Y cells were cultured in Dulbecco’s modified Eagle medium (DMEM)/Ham’s F-12 medium supplemented with 10% fetal bovine serum (FBS), 100 U/mL penicillin and 100 µg/mL streptomycin. Cells were routinely cultured in 75 cm^2 cell culture flasks at 37 °C in 5% CO2. After that, cells were seeded at a density 5 × 10^5 cells/mL in 96-well plates and incubated for an additional 48 h before evaluation.
For the investigation of the toxicity effect of test compounds, cells were treated with test compounds at final concentrations of 0.1, 1, 10, 100 μM for 24 h. […] Then, culture media was replaced with a solution of MTT (0.5 mg/mL) at 37 °C for 2 h to determine survival of cells. Live cells containing formazan crystals were solubilized in 100 µL of DMSO. The absorption was measured by UV spectrometer ([…] Accureader M965) at 570 nm. The percentages of cell viability were calculated in relation to untreated cells.

SH-SY5Y cells [4] = experiment: Neuroprotection against H2O2-induced cell death in SH-SY5Y cells; assay type: cell-based, Human; conditions: 10 µM pre-treatment 24 h, then 250 µM H2O2 for 2 h
Method: (§2) To examine the neuroprotective effects of acridones against H2O2, SH-SY5Y cells were pre-treated with 10 µM citrusinine II and glycosparvarine for 24 h before exposure to 250 µM H2O2 for 2 h. […] The cytotoxic effects of H2O2 were attenuated by pre-treating cells with citrusinine II and glycosparvarine (Figure 8). For evaluation of the neuroprotective effects of acridones against Aβ1-42 toxicity, SH-SY5Y cells were pre-treated with 10 µM citrusinine II and glycosparvarine for 24 h, followed by 25 µM Aβ1-42 for 24 h. Cell viability was determined by MTT assay.
as §1
For evaluation of the neuroprotective effect against H2O2 induced cell damage, cells were pretreated with test compounds or a reference standard at the concentration of 10 μM for 24 h. After treatment, the medium was removed, and cells were washed with phosphate buffer saline to remove unabsorbed test compounds. […] The cell viability was determined by MTT assay.

SH-SY5Y cells [5] = experiment: Neuroprotection against Aβ1-42-induced cell death in SH-SY5Y cells; assay type: cell-based, Human; conditions: 10 µM pre-treatment 24 h, then 25 µM Aβ1-42 for 24 h
Method: as §2, §1
For neuroprotection against Aβ1–42 toxicity, the Aβ1–42 preparation was modified from Thiratmatrakul et al.. Briefly, lyophilized Aβ1–42 was reconstituted in sterile water and kept at –80 °C until use. […] Twenty-four hours later, cell viability was determined by the MTT colorimetric method. […]

Aβ1-42, sequence (P05067 672-713 limits assumed): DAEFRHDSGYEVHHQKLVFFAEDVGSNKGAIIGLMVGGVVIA

CC(C)=CCc1c(O)c(CC=C(C)C)c2[nH]c3c(O)cccc3c(=O)c2c1O [Atalaphylline, atalaphylline]
IC50 (Aβ1-42): 6.58 ± 1.3 µM | IC50 [1]: 58.3 ± 2.99 µM | IC50 [2]: 46.2 ± 2.31 µM

CC(C)=CCc1c2c(c3[nH]c4c(O)cccc4c(=O)c3c1O)C=CC(C)(C)O2 [Atalaphyllinine, atalaphyllinine]
IC50 (Aβ1-42): 4.79 ± 0.67 µM | IC50 [1]: 60.8 ± 4.62 µM | IC50 [2]: 53 ± 1.83 µM

COc1cc2[nH]c3c(O)cccc3c(=O)c2c(O)c1CC=C(C)C [Buxifoliadine C, buxifoliadine C]
IC50 (Aβ1-42): 8.81 ± 3.62 µM | IC50 [1]: 50.8 ± 3.74 µM | IC50 [2]: 21.8 ± 2.71 µM

COc1c(O)c(OC)c2c(c1O)c(=O)c1cccc(O)c1n2C [Citruscridone, citruscridone]
IC50 (Aβ1-42): 8.61 ± 0.75 µM | IC50 [1]: 47 ± 2.4 µM | IC50 [2]: 31.7 ± 0.56 µM

COc1cc(O)c2c(=O)c3cccc(O)c3n(C)c2c1OC [Citrusinine I, citrusinine I]
IC50 (Aβ1-42): 7.05 ± 1.45 µM | IC50 [1]: 35.4 ± 1.61 µM | IC50 [2]: 33.77 ± 0.29 µM

COc1c(O)cc(O)c2c(=O)c3cccc(O)c3n(C)c12 [Citrusinine II, citrusinine II]
IC50 (Aβ1-42): 6.17 ± 2.29 µM | IC50 [1]: 42.6 ± 4.81 µM | Effect on viability of SH-SY5Y cells (MTT) [3]: no effect on viability | IC50 [2]: 20 ± 3.89 µM | Neuroprotective effect against H2O2-induced loss of cell viability (MTT) (SH-SY5Y cells [4]): attenuated | Neuroprotective effect against Aβ1-42 toxicity (MTT) (SH-SY5Y cells [5]): significantly protected

COc1c(O)cc2c(c1O)c(=O)c1cccc(O)c1n2C [Glycosparvarine, glycosparvarine]
IC50 (Aβ1-42): 6.58 ± 2.03 µM | IC50 [1]: 18.6 ± 2.77 µM | Effect on viability of SH-SY5Y cells (MTT) [3]: no effect on viability | IC50 [2]: 22.9 ± 2.24 µM | Neuroprotective effect against H2O2-induced loss of cell viability (MTT) (SH-SY5Y cells [4]): attenuated

CC(C)=CCc1c(O)c(CC=C(C)C)c2c(c1O)c(=O)c1cccc(O)c1n2C [N-methylatalaphylline]
IC50 (Aβ1-42): 7.32 ± 0.09 µM | IC50 [1]: 49.1 ± 2.75 µM | IC50 [2]: 50.7 ± 1.02 µM

CC(C)=CCc1c2c(c3c(c1O)c(=O)c1cccc(O)c1n3C)C=CC(C)(C)O2 [N-methylatalaphyllinine]
IC50 (Aβ1-42): 6.14 ± 3.85 µM | IC50 [1]: 54 ± 2.03 µM | IC50 [2]: 57.5 ± 3.52 µM

CC(C)=CCc1c2c(c(O)c3c(=O)c4cccc(O)c4n(C)c13)C=CC(C)(C)O2 [N-methylcycloatalaphylline A]
IC50 (Aβ1-42): 5.84 ± 0.99 µM | IC50 [1]: 66.6 ± 2.51 µM | IC50 [2]: 79.6 ± 3.26 µM

Cc1c(C)c2c(c(C)c1O)CCC(C)(C(=O)O)O2 (stereo not drawn) [Trolox, reference compound]
IC50 [2]: 58.9 ± 2.38 µM
